# From patent publication US20070179121A1, “Method of treating pediatric patients with corticosteroids” (priority 2006, published 2007)
# Assays:
# [1] = Treatment-emergent adverse events; format: in vivo, human (pediatric patients)
# Text: (§1) Patients who met the inclusion/exclusion criteria were randomized to receive topical fluocinonide either qd or bid. Patients/guardians were instructed to apply a thin layer of the study product to all treatable areas once or twice daily for 14 days. If the areas to be treated were hairy, patients/guardians were instructed to part the hair to allow direct contact between the study product and the lesion. Patients/guardians were also instructed not to apply study product to lesions of the face, groin, perianal area, and axillae. At the end of Weeks 1, 2, and 4, patients returned to the study site in order for the investigator to perform designated evaluations, review treatment compliance and concomitant therapy, and to collect information regarding adverse events.
# Adverse events were coded using MedDRA terminology (a standard dictionary of terms used to clarify adverse events) and were described according to their intensity, duration and relationship to the study product.
# [2] = Efficacy: investigator rating of atopic dermatitis severity; format: in vivo, human (pediatric patients); conditions: for Patients who continued to show an improvement of clear or almost clear compared to Baseline: 2-week follow-up visit
# Text: as §1
# Efficacy was assessed by observing the change in the severity of atopic dermatitis from Baseline to Week 2 and Week 4. A disease exacerbation requiring more aggressive treatment than previously used was considered an adverse event.
# The sole efficacy variable in the study was an investigator rating of skin disease severity performed at Screening, at end of treatment, and at a follow-up visit 4 weeks after the start of study treatment. Fluocinonide administered either qd or bid appears to be effective against atopic dermatitis in children aged 3 months to 17 years. In each of the 4 cohorts of this study, more than 90% of the patients in both the fluocinonide qd and bid group were rated by the investigator as showing an improvement in their disease status or as clear or almost clear of disease at the end of the treatment period. The qd regimen appeared to be as effective as the bid regimen across all age groups.
smiles,measurement,setting,value
"CC(=O)OCC(=O)[C@@]12OC(C)(C)O[C@@H]1C[C@H]1[C@@H]3C[C@H](F)C4=CC(=O)C=C[C@]4(C)[C@@]3(F)[C@@H](O)C[C@@]12C [Fluocinonide, pregna-1,4-diene-3,20-dione,21-(acetyloxy)-6,9-difluoro-11-hydroxy-16, 17-[(1-methylethylidene)bis(oxy)]-,(6α., 11β,16α)-]",Burning Sensation NOS,"[1]; Cohort 1, bid",2 (11.8) Number (%)
same,Dermatitis diaper,"[1]; Cohort 1, bid",0 (0) Number (%)
same,Folliculitis,"[1]; Cohort 1, bid",1 (5.9) Number (%)
same,Gastroenteritis NOS,"[1]; Cohort 1, bid",0 (0) Number (%)
same,Headache,"[1]; Cohort 1, bid",3 (17.6) Number (%)
same,Pain NOS,"[1]; Cohort 1, bid",2 (11.8) Number (%)
same,Pyrexia,"[1]; Cohort 1, bid",0 (0) Number (%)
same,Total no. of patients with AEs,"[1]; Cohort 1, bid",9 (52.9) Number (%)
same,Upper respiratory tract infection,"[1]; Cohort 1, bid",0 (0) Number (%)
same,Burning Sensation NOS,"[1]; Cohort 1, qd",0 (0) Number (%)
same,Dermatitis diaper,"[1]; Cohort 1, qd",0 (0) Number (%)
same,Folliculitis,"[1]; Cohort 1, qd",2 (12.5) Number (%)
same,Gastroenteritis NOS,"[1]; Cohort 1, qd",0 (0) Number (%)
same,Headache,"[1]; Cohort 1, qd",1 (6.3) Number (%)
same,Pain NOS,"[1]; Cohort 1, qd",0 (0) Number (%)
same,Pyrexia,"[1]; Cohort 1, qd",0 (0) Number (%)
same,Total no. of patients with AEs,"[1]; Cohort 1, qd",6 (37.5) Number (%)
same,Upper respiratory tract infection,"[1]; Cohort 1, qd",0 (0) Number (%)
same,Burning Sensation NOS,"[1]; Cohort 2, bid",0 (0) Number (%)
same,Dermatitis diaper,"[1]; Cohort 2, bid",0 (0) Number (%)
same,Folliculitis,"[1]; Cohort 2, bid",0 (0) Number (%)
same,Gastroenteritis NOS,"[1]; Cohort 2, bid",0 (0) Number (%)
same,Headache,"[1]; Cohort 2, bid",0 (0) Number (%)
same,Pain NOS,"[1]; Cohort 2, bid",0 (0) Number (%)
same,Pyrexia,"[1]; Cohort 2, bid",0 (0) Number (%)
same,Total no. of patients with AEs,"[1]; Cohort 2, bid",6 (37.5) Number (%)
same,Upper respiratory tract infection,"[1]; Cohort 2, bid",1 (6.3) Number (%)
same,Burning Sensation NOS,"[1]; Cohort 2, qd",0 (0) Number (%)
same,Dermatitis diaper,"[1]; Cohort 2, qd",0 (0) Number (%)
same,Folliculitis,"[1]; Cohort 2, qd",1 (6.3) Number (%)
same,Gastroenteritis NOS,"[1]; Cohort 2, qd",0 (0) Number (%)
same,Headache,"[1]; Cohort 2, qd",0 (0) Number (%)
same,Pain NOS,"[1]; Cohort 2, qd",1 (6.3) Number (%)
same,Pyrexia,"[1]; Cohort 2, qd",0 (0) Number (%)
same,Total no. of patients with AEs,"[1]; Cohort 2, qd",4 (25.0) Number (%)
same,Upper respiratory tract infection,"[1]; Cohort 2, qd",0 (0) Number (%)
same,Burning Sensation NOS,"[1]; Cohort 3, bid",0 (0) Number (%)
same,Dermatitis diaper,"[1]; Cohort 3, bid",0 (0) Number (%)
same,Folliculitis,"[1]; Cohort 3, bid",0 (0) Number (%)
same,Gastroenteritis NOS,"[1]; Cohort 3, bid",0 (0) Number (%)
same,Headache,"[1]; Cohort 3, bid",0 (0) Number (%)
same,Pain NOS,"[1]; Cohort 3, bid",0 (0) Number (%)
same,Pyrexia,"[1]; Cohort 3, bid",0 (0) Number (%)
same,Total no. of patients with AEs,"[1]; Cohort 3, bid",2 (13.3) Number (%)
same,Upper respiratory tract infection,"[1]; Cohort 3, bid",0 (0) Number (%)
same,Burning Sensation NOS,"[1]; Cohort 3, qd",0 (0) Number (%)
same,Dermatitis diaper,"[1]; Cohort 3, qd",0 (0) Number (%)
same,Folliculitis,"[1]; Cohort 3, qd",0 (0) Number (%)
same,Gastroenteritis NOS,"[1]; Cohort 3, qd",0 (0) Number (%)
same,Headache,"[1]; Cohort 3, qd",0 (0) Number (%)
same,Pain NOS,"[1]; Cohort 3, qd",0 (0) Number (%)
same,Pyrexia,"[1]; Cohort 3, qd",0 (0) Number (%)
same,Total no. of patients with AEs,"[1]; Cohort 3, qd",3 (20) Number (%)
same,Upper respiratory tract infection,"[1]; Cohort 3, qd",0 (0) Number (%)
same,Burning Sensation NOS,"[1]; Cohort 4, bid",0 (0) Number (%)
same,Dermatitis diaper,"[1]; Cohort 4, bid",0 (0) Number (%)
same,Folliculitis,"[1]; Cohort 4, bid",0 (0) Number (%)
same,Gastroenteritis NOS,"[1]; Cohort 4, bid",0 (0) Number (%)
same,Headache,"[1]; Cohort 4, bid",0 (0) Number (%)
same,Pain NOS,"[1]; Cohort 4, bid",0 (0) Number (%)
same,Pyrexia,"[1]; Cohort 4, bid",2 (13.3) Number (%)
same,Total no. of patients with AEs,"[1]; Cohort 4, bid",7 (46.7) Number (%)
same,Upper respiratory tract infection,"[1]; Cohort 4, bid",1 (6.7) Number (%)
same,Burning Sensation NOS,"[1]; Cohort 4, qd",0 (0) Number (%)
same,Dermatitis diaper,"[1]; Cohort 4, qd",2 (12.5) Number (%)
same,Folliculitis,"[1]; Cohort 4, qd",0 (0) Number (%)
same,Gastroenteritis NOS,"[1]; Cohort 4, qd",2 (12.5) Number (%)
same,Headache,"[1]; Cohort 4, qd",0 (0) Number (%)
same,Pain NOS,"[1]; Cohort 4, qd",0 (0) Number (%)
same,Pyrexia,"[1]; Cohort 4, qd",2 (12.5) Number (%)
same,Total no. of patients with AEs,"[1]; Cohort 4, qd",8 (50.0) Number (%)
same,Upper respiratory tract infection,"[1]; Cohort 4, qd",2 (12.5) Number (%)
same,Patients who reported at least one treatment-emergent adverse event (TEAE),"[1]; all treated patients, 45 of 126",35.7%
same,Deaths or other serious adverse events,[1]; whole study,No deaths or other serious adverse events
same,Patients who continued to show an improvement of clear or almost clear compared to Baseline,[2]; each dosage group in Cohort 1 and Cohort 3,> 80%
same,Patients who continued to show an improvement of clear or almost clear compared to Baseline,[2]; each dosage group in Cohort 2,> 70%
same,Patients who continued to show an improvement of clear or almost clear compared to Baseline,[2]; each dosage group in Cohort 4,> 90%
same,Patients rated as showing an improvement in disease status or as clear or almost clear of disease,"[2]; end of treatment period vs Baseline, Cohort 1 and Cohort 2, bid",> 90%
same,Patients rated as showing an improvement in disease status or as clear or almost clear of disease,"[2]; end of treatment period vs Baseline, Cohort 1 and Cohort 2, qd",all of the patients
same,Patients rated as showing an improvement in disease status or as clear or almost clear of disease,"[2]; end of treatment period, Cohorts 3 and 4, both qd and bid groups",> 90%
same,Patients rated as showing an improvement in disease status or as clear or almost clear of disease,"[2]; end of treatment period, each of the 4 cohorts, both qd and bid group",more than 90%
